# Experimental data from US9913838B2, “Methods of treating cancer using compositions comprising perillyl alcohol derivative” (NEONC TECHNOLOGIES INC., priority 2010, dated 2018).
# “Also recorded” adds a separate entry of the source.
# Experiments:
# [1] = test system: T47D; experiment: Colony formation assay, T47D; assay type: cell-based, human; settings: for IC50: Homo sapiens, 48 h, read-out: IC50 (concentration required to decrease colony formation by 50%)
# Experimental: (§1) Depending on the cell line (and plating efficiency), 200-350 cells were seeded into each well of a 6-well plate. […] Thereafter, the drugs were removed, fresh growth medium was added, and the cells were kept in culture undisturbed for 12-16 days, during which time the surviving cells spawned colonies of descendants. Colonies (defined as groups of >50 cells) were visualized by staining for 4 hours with 1% methylene blue (in methanol), and then were counted.
# (§2) The cytotoxic potency of TMZ-POH, was analyzed by colony formation assay (CFA) in a variety of human breast cancer cell lines and compared to the cytotoxicity of TMZ. We used estrogen receptor positive cells MCF7 and T47D, the triple-negative lines MDA-MB-231, MDA-MB-468, and HCC-1937, and a brain-seeking variant of the 231 cell line, MDA-MB-231-br.
# [2] = test system: TMZ sensitive (U251) cells; experiment: Colony forming assay, TMZ sensitive U251 cells; assay type: cell-based, human; settings: in words
# Experimental: Colony forming assays were carried out after cells were treated with TMZ alone, POH alone, and the TMZ-POH conjugate. […] Cancer Lett. 2011 Mar. 28; 302(2):100-8.
# [3] = test system: MDA-MB-231 cells; experiment: Determination of drug stability by colony formation assay; assay type: cell-based, human; settings: for colony survival: drugs in the medium for 24 hours; for reduction of colony formation: one-hour exposure; for survival: two-hour exposure; for reduction of survival: added straight to cells, 24 hours; for colony-forming ability of receiving cells: supernatant transferred after prior one-hour incubation
# Experimental: FIGS. 26A-26C depicts determination of drug stability, where MDA-MB-231 cells were analyzed in colony formation assays. In FIG. 26A, cells were treated with 15 μM TMZ-POH or 30 μM TMZ for 30 min or 1, 2, 4, and 24 hours. Thereafter, drug-containing medium was removed, fresh medium (without drug) was added, and cells remained undisturbed until colony staining 12 days later. The arrows indicate which cells received which supernatant. After 24 hours of incubation, all drug-containing medium was removed, fresh medium (without drug) was added, and cells remained undisturbed until colony staining 12 days later. […] Left panel (untreated): control cells without drug treatment. Middle panel (0-24 h): Cells received 15 μM TMZ-POH or 30 μM TMZ for 24 hours. Right panel (1-25 h): TMZ-POH and TMZ were incubated in neutral buffer at 37° C. for 1 hour before addition to cells to a final concentration of 15 μM TMZ-POH and 30 μM TMZ for 24 hours.
# TMZ is a prodrug, and it is well known that its activation takes place spontaneously in aqueous solution at 37° C. (i.e., no cellular functions are required for this conversion). As well, the half-lives of both prodrug and active product are fairly short, where all cytotoxic triggers are set within the first few hours of treatment. […] First, we exposed cells to variably short periods of drug treatment, washed off the drug, and then continued to keep cells in medium without drug to determine survival and colony-forming ability. For most of these experiments, we used 15 μM TMZ-POH and 30 μM TMZ, because these concentrations are approximately equipotent in the >90% cytotoxicity range (when measured by CFAs and a drug exposure time of 24 hours).
# Thus, TMZ acted more quickly than TMZ-POH; it required only 4 hours to exert maximum toxicity, whereas TMZ-POH had not yet reached its maximum impact at this time point.
# We next modified this experiment as follows. After cells had been exposed to drug treatment for the specific times shown in FIG. 26A, we removed the medium containing the drug from the cells, and transferred this supernatant to fresh cells, which were then exposed for 24 hours. […] In contrast, when supernatant was transferred after prior one-hour incubation, colony-forming ability of receiving cells was 48% in cells receiving TMZ-containing supernatant, and 22% in TMZ-POH-containing supernatant.
# To exclude the involvement of cellular enzymes in the turnover of TMZ-POH, we incubated TMZ-POH (and TMZ) in phosphate-buffered saline at 37° C. for one hour (in the absence of cells). After this pre-incubation, TMZ-POH and TMZ were added to cells for 24 hours, and survival was determined by CFA. As a control, both drugs were also added to cells without prior incubation in aqueous solution. A representative CFA is shown in FIG. 26C, where the middle panel confirms that both drugs were used at approximately equipotent concentrations; i.e., when added straight to cells, they reduced survival by ˜95%. However, pre-incubation in aqueous solution for only one hour preempted the cytotoxic potency of TMZ by about 50%, but that of TMZ-POH much less (80% remaining; see right panel).
# [4] = test system: 231-MGMT-1; experiment: Colony formation assay, MGMT-transfected 231-MGMT-1; assay type: cell-based, human; settings: for IC50: Homo sapiens, 48 h, read-out: IC50 (concentration required to decrease colony formation by 50%)
# Experimental: as §1
# (§3) In the case of O6-BG treatment, cells were pretreated with 10 μM O6-BG for one hour before addition of TMZ or TMZ-POH. After 24 hours, another 10 μM O6-BG was added to the medium. Another 24 hours later, drug-laced medium was removed, and fresh medium without drugs was added. Thereafter, cells remained undisturbed until staining with methylene blue.
# MDA-MB-231 cells were co-transfected in 6-well plates with the use of Lipofectamine 2000 (Invitrogen, Carlsbad, Calif.) according to manufacturer's instructions. 2 μg pSV2MGMT (containing the human MGMT cDNA) was combined with 0.2 μg pSV2neo (containing the neomycin gene for selection of cells in G418). Both plasmids were provided by Bernd Kaina (Mainz, Germany). Individual clones of transfected cells were selected in medium containing 750 μg/mL G418 and propagated in 250 μg/mL G418. G418 was obtained as G418 disulfate salt from Sigma-Aldrich and dissolved in PBS at 75 mg/mL. Selection medium was removed from cells several days before experimental drug treatment.
# To investigate the latter, we stably transfected MGMT-negative MDA-MB-231 cells with MGMT cDNA and isolated individual clones. […] Both clones were treated with increasing concentrations of TMZ-POH and TMZ and analyzed by CFA.
# [5] = test system: MDA-MB-468; experiment: Colony formation assay, MDA-MB-468; settings: for IC50: Homo sapiens, MDA-MB-468, 48 h, read-out: IC50 (concentration required to decrease colony formation by 50%)
# Experimental: as §1, §3, §2
# [6] = test system: MDA-MB-231-br; experiment: Colony formation assay, MDA-MB-231-br; assay type: cell-based, human; settings: for IC50: Homo sapiens, 48 h, read-out: IC50 (concentration required to decrease colony formation by 50%)
# Experimental: as §1, §2
# [7] = test system: MCF7; experiment: Colony formation assay, MCF7; settings: for IC50: Homo sapiens, MCF7, 48 h, read-out: IC50 (concentration required to decrease colony formation by 50%)
# Experimental: as §1, §3, §2
# [8] = test system: USC-02 glioma cancer stem cells; experiment: MTT cytotoxicity assay, USC-02 glioma cancer stem cells; assay type: cell-based
# Description: Cancer Lett. 2011 Mar. 28; 302(2):100-8.
# [9] = low micromolar concentrations, 48 hours, in words
Structure (SMILES),IC50 ([1]; T47D),cytotoxicity (colony forming assay) [2],colony survival ([3]; 15 μM TMZ-POH or 30 μM TMZ),reduction of colony formation ([3]; 15 μM TMZ-POH or 30 μM TMZ),survival ([3]; 15 μM TMZ-POH or 30 μM TMZ),reduction of survival ([3]; 15 μM TMZ-POH or 30 μM TMZ),colony-forming ability of receiving cells [3],IC50 [4],IC50 [5],IC50 [6],IC50 [7],further results
"Cn1nnc2c(C(N)=O)ncn2c1=O [TMZ, temozolomide, reference compound]",20 µM,demonstrated cytotoxicity,~8%,> 50%,23%,~95%,48%,202 µM,195 µM,3.8 µM,513 µM,"cytotoxicity (MTT assay) ([8]; TMZ 0-400 uM, POH 0-2 mM, in words): did not induce significant cytotoxicity"
C=C(C)[C@@H]1CC=C(COC(=O)NC(=O)c2ncn3c(=O)n(C)nnc23)CC1 [TMZ-POH],4.6 µM,demonstrated cytotoxicity; also recorded: substantially greater potency compared to POH alone,about 3%,20%,51%,~95%,22%,27 µM,31 µM,1.2 µM,33 µM,"Differential (−fold) ([1]; fold increase in potency of TMZ-POH compared to TMZ, T47D): 4.3 −fold; colony formation (CFA) [1, 9]: prevented colony formation; time required to exert maximum toxicity ([3]; 15 μM TMZ-POH or 30 μM TMZ): > 4 h; stability / retention of cytotoxic potency ([3]; in words): retained its cytotoxic potency substantially longer than TMZ; also recorded: more stable than TMZ; cytotoxic potency remaining after pre-incubation ([3]; phosphate-buffered saline at 37° C. for one hour, absence of cells): 80%; cytotoxic activity of supernatant transferred after prior 24-hours of incubation ([3]; receiving cells exposed 24 hours, in words): no cytotoxic activity remained; Differential (−fold) ([4]; fold increase in potency of TMZ-POH compared to TMZ, 231-MGMT-1): 7.5 −fold; Differential (−fold) ([5]; fold increase in potency of TMZ-POH compared to TMZ, MDA-MB-468): 6.3 −fold; colony formation (CFA) [5, 9]: prevented colony formation; Differential (−fold) ([6]; fold increase in potency of TMZ-POH compared to TMZ, MDA-MB-231-br): 3.2 −fold; colony formation (CFA) [6, 9]: prevented colony formation; Differential (−fold) ([7]; fold increase in potency of TMZ-POH compared to TMZ, MCF7): 15.5 −fold; colony formation (CFA) [7, 9]: prevented colony formation; IC50 ([8]; read-out: cytotoxicity with 1050): 60 µM"
